Experimental data taken from ChEMBL document CHEMBL5154884, “Discovery of a Novel Src Homology-2 Domain Containing Protein Tyrosine Phosphatase-2 (SHP2) and Cyclin-Dependent Kinase 4 (CDK4) Dual Inhibitor for the Treatment of Triple-Negative Breast Cancer” (J Med Chem, 2022).
Calls of active or inactive are those of the source. The rule behind the calls is not given here.

What was measured:
MDA-MB-231 [1] = assay: Induction of apoptosis in human MDA-MB-231 cells assessed as early apoptotic cells at 3 uM measured after 48 hrs by Annexin V-FITC/PI staining based flow cytometric analysis (reference value: 0.32%); format: functional
CDK2/Cyclin-E2 = CDK2/Cyclin-E2 (Homo sapiens, UniProt O96020+P24941); assay: Inhibition of recombinant N-terminal GST/His6-fusion tagged human CDK2/Cyclin E2 expressed in Sf9 insect cells incubated for 20 mins followed by [33P]gamma-ATP addition and measured after 2 hrs by radiometric HotSpot Kinase assay
EMT6 [2] = assay: Antitumor activity against mouse EMT6 cells implanted in BALB/c mouse syngenic model assessed as downregulation of Ki67 level in tumor at 20 to 40 mg/kg, po qd measured after 18 days by immunohistochemical analysis; format: functional, organism-based; details: dose 20-40 mg/kg, time 18.0 day
CDK3/Cyclin E = CDK3/Cyclin E (Homo sapiens, UniProt Q00526); assay: Inhibition of recombinant N-terminal GST/His6-fusion tagged human CDK3/Cyclin E expressed in Sf9 insect cells incubated for 20 mins followed by [33P]gamma-ATP addition and measured after 2 hrs by radiometric HotSpot Kinase assay
MDA-MB-468 = assay: Antiproliferative activity against human MDA-MB-468 cells assessed as inhibition of cell growth incubated for 48 hrs by MTT assay; format: functional, cell-based; details: Homo sapiens, MDA-MB-468, 48 h
MDA-MB-231 [3] = assay: Induction of apoptosis in human MDA-MB-231 cells assessed as late apoptotic cells at 1 uM measured after 48 hrs by Annexin V-FITC/PI staining based flow cytometric analysis (reference value: 1.06%); format: functional
MDA-MB-231 [4] = assay: Induction of cell cycle arrest in human MDA-MB-231 cells assessed as accumulation of cells in G0/G1 phase at 3 uM incubated for 48 hrs by RNase/propidium iodide staining based flow cytometry analysis (reference value: 26.2%); format: functional
EMT6 [5] = assay: Antitumor activity against mouse EMT6 cells implanted in BALB/c mouse syngenic model assessed as downregulation of pERK level in tumor at 20 mg/kg, po bid measured after 18 days by immunohistochemical analysis; format: functional, organism-based; details: time 18.0 day
EMT6 [6] = assay: Antitumor activity against mouse EMT6 cells implanted in BALB/c mouse syngenic model assessed as downregulation of Ki67 level in tumor at 20 mg/kg, po bid measured after 18 days by immunohistochemical analysis; format: functional, organism-based; details: time 18.0 day
[7] = Cmax in ICR mouse at 10 mg/kg, po measured upto 24 hrs by LC-MS/MS analysis; format: ADME, organism-based; design: time < 24 hrs, dose 10 mg/kg, route po; details: in vivo
[8] = Terminal half life in ICR mouse at 1 mg/kg, iv measured upto 24 hrs by LC-MS/MS analysis; format: ADME, organism-based; details: in vivo, read-out: beta t1/2 (converted)
[9] = target: T1, Tyrosine-protein phosphatase non-receptor type 11 (Homo sapiens, UniProt Q06124); assay: Inhibition of SHP2 PTP domain (unknown origin) using DiFMUP as substrate preincubated for 20 mins followed by substrate addition and measured for 2 hrs by fluorescence based analysis
T1 sequence (Q06124 whole entry): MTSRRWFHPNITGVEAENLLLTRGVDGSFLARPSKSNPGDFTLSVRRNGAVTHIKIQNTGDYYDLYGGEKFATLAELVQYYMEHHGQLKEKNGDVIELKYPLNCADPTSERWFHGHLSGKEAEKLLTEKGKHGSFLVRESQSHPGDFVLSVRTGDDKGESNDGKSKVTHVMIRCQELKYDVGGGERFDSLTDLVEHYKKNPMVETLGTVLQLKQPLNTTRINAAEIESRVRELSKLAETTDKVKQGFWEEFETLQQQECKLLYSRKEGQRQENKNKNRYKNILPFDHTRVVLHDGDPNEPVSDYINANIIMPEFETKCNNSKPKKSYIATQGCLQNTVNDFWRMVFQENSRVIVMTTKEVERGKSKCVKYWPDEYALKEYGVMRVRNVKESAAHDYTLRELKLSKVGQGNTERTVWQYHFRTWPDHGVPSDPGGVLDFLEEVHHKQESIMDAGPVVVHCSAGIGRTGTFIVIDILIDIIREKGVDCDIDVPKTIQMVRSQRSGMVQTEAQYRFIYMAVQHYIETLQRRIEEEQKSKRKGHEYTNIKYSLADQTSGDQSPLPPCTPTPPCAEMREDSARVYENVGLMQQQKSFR

[10] = Volume of distribution in ICR mouse at 1 mg/kg, iv measured upto 24 hrs by LC-MS/MS analysis; format: ADME, organism-based; details: in vivo
[11] = target: T2, Tyrosine-protein phosphatase non-receptor type 11 (Homo sapiens) (UniProt Q06124); assay: Inhibition of SHP2 downstream signalling in human MDA-MB-231 cells assessed as decrease in pERK1/2 protein level measured after 72 hrs by Western blot analysis; format: cell-based; details: dose 1.25-20 µM, DDE = dose-dependent effect
T2 sequence (whole entry): T1 sequence (Q06124 whole entry)

[12] = AUC in ICR mouse at 1 mg/kg, iv measured upto 24 hrs by LC-MS/MS analysis; format: ADME, organism-based; design: time < 24 hrs, dose 1 mg/kg, route iv; details: in vivo
[13] = Cmax in ICR mouse at 1 mg/kg, iv measured upto 24 hrs by LC-MS/MS analysis; format: ADME, organism-based; design: time < 24 hrs, dose 1 mg/kg, route iv; details: in vivo
CDK6/cyclin D3 = CDK6/cyclin D3 (Homo sapiens, UniProt Q00534); assay: Inhibition of recombinant N-terminal GST/His6-fusion tagged human CDK6/Cyclin D3 expressed in Sf9 insect cells incubated for 20 mins followed by [33P]gamma-ATP addition and measured after 2 hrs by radiometric HotSpot Kinase assay
CDK4/Cyclin D3 = CDK4/Cyclin D3 (Homo sapiens, UniProt P11802); assay: Inhibition of recombinant N-terminal GST/His6-fusion tagged human CDK4/Cyclin D3 expressed in Sf9 insect cells incubated for 20 mins followed by [33P]gamma-ATP addition and measured after 2 hrs by radiometric HotSpot Kinase assay
MDA-MB-231 [14] = assay: Upregulation of p-STAT3 protein expression in human MDA-MB-231 cells at 0.25 to 20 uM measured after 72 hrs by Western blot analysis; format: functional, cell-based; details: dose 0.25-20 µM
EMT6 [15] = assay: Antitumor activity against mouse EMT6 cells implanted in BALB/c mouse syngenic model assessed as increase in infiltration of CD8 positive T cells into tumors at 20 mg/kg, po bid measured after 18 days by immunohistochemical analysis; format: functional, organism-based; details: time 18.0 day
[16] = Clearance in ICR mouse at 1 mg/kg, iv measured upto 24 hrs by LC-MS/MS analysis; format: ADME, organism-based; details: in vivo
EMT6 [17] = assay: Antitumor activity against mouse EMT6 cells implanted in BALB/c mouse syngenic model assessed as downregulation of p-retinoblastoma level in tumor at 20 to 40 mg/kg, po qd measured after 18 days by immunohistochemical analysis; format: functional, organism-based; details: dose 20-40 mg/kg, time 18.0 day
MDA-MB-231 [18] = assay: Induction of apoptosis in human MDA-MB-231 cells assessed as early apoptotic cells at 1 uM measured after 48 hrs by Annexin V-FITC/PI staining based flow cytometric analysis (reference value: 0.32%); format: functional
MDA-MB-231 [19] = assay: Induction of cell cycle arrest in human MDA-MB-231 cells assessed as accumulation of cells in G2/M phase at 3 uM incubated for 48 hrs by RNase/propidium iodide staining based flow cytometry analysis (reference value: 2.7%); format: functional
[20] = Oral bioavailability in ICR mouse at 10 mg/kg measured upto 24 hrs by LC-MS/MS analysis; format: ADME, organism-based; details: in vivo

Chain of CDK6/cyclin D3 (P30281 whole entry, the tested form may be a part): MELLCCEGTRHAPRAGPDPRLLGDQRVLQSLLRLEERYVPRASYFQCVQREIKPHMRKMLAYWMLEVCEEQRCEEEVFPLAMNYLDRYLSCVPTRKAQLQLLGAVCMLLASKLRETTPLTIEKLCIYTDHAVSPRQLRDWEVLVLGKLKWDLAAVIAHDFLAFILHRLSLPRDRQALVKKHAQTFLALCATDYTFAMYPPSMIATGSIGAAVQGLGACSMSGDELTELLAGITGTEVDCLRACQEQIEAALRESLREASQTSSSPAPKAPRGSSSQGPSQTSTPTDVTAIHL
Chain of CDK6/cyclin D3 (Q00534 whole entry, the tested form may be a part): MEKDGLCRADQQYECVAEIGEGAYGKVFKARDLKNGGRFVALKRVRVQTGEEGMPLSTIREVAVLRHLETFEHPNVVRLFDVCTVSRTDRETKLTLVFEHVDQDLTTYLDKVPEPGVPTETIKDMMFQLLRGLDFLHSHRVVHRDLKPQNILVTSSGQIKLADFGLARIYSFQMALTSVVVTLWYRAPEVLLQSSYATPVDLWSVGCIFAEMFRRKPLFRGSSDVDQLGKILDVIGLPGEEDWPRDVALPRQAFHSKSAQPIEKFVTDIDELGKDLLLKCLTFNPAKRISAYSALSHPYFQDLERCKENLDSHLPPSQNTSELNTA
Chain of CDK3/Cyclin E (P24864 whole entry, the tested form may be a part): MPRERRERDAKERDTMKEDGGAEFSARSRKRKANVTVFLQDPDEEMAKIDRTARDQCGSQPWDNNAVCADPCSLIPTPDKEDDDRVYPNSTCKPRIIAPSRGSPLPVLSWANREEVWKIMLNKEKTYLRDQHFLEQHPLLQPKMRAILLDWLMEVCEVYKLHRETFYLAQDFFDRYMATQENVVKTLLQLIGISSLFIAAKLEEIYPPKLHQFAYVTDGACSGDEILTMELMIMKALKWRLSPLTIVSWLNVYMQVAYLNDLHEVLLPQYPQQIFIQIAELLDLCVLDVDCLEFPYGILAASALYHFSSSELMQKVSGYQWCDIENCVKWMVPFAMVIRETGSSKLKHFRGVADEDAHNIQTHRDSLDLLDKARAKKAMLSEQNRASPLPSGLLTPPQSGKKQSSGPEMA
Chain of CDK3/Cyclin E (Q00526 whole entry, the tested form may be a part): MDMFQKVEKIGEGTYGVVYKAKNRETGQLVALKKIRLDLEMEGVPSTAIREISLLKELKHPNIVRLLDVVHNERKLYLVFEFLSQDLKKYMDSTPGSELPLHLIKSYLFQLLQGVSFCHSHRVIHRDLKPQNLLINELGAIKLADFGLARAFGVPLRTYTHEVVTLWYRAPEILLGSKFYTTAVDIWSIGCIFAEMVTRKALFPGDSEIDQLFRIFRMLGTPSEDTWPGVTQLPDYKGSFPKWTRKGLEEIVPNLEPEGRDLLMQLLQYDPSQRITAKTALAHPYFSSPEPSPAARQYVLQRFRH
Chain of CDK4/Cyclin D3 (P11802 whole entry, the tested form may be a part): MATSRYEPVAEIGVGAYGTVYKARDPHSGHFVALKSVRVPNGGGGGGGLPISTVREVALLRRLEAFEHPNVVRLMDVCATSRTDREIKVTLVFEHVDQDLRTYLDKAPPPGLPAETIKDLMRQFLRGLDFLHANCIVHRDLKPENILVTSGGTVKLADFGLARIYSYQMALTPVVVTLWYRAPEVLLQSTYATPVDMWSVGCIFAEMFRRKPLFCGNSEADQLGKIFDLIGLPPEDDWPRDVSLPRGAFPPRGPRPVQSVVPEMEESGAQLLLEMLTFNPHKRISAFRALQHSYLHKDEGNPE
Chain of CDK4/Cyclin D3 (P30281 whole entry, further chain, the tested form may be a part): as the sequence (P30281 whole entry, the tested form may be a part) above

Cc1nc2c(F)cc(-c3nc(Nc4nccc(Sc5cnc(N6CCC7(CC6)CO[C@@H](C)[C@H]7N)cn5)c4Cl)ncc3F)cc2n1C(C)C
Activity (MDA-MB-231 [1]): 9.46% | IC50 (CDK2/Cyclin-E2): 464 nM | Activity (EMT6 [2]): Active | IC50 (CDK3/Cyclin E): > 1000 nM | IC50 (MDA-MB-468): 1760 nM | Activity (MDA-MB-231 [3]): 5.24% | Activity (MDA-MB-231 [4]): 58.9% | Activity (EMT6 [5]): Active | Activity (EMT6 [6]): Active | Cmax [7]: 634 ng/mL | half-life [8]: 2.11 h | IC50 [9]: > 20000 nM | Vd [10]: 2.53 L/kg | inhibition [11]: Dde | AUC at 24 h [12]: 1200 ng·h/mL | Cmax [13]: 383 ng/mL | IC50 (CDK6/cyclin D3): 634 nM | IC50 (CDK4/Cyclin D3): 18.2 nM | Activity (MDA-MB-231 [14]): Active | Activity (EMT6 [15]): Active | clearance [16]: 13.9 mL/min/kg | Activity (EMT6 [17]): Active | Activity (MDA-MB-231 [18]): 7.29% | Activity (MDA-MB-231 [19]): 1.5% | bioavailability [20]: 45.8%
